Source: patent US9381238B2 (priority 2010, dated 2016)

Key:
[1] = system: H3N2 A/Moscow/10/99 virus; experiment: Copies of viral genome M/ml in supernatant of infected A549 cells by real-time RT-qPCR; format: cell-based, H3N2 A/Moscow/10/99 virus in human A549 cells; details: for times more copies of genome in supernatant than control without Nutlin-3: A549, 10 hpi (single viral cycle); for times more copies M/ml of supernatant than the control: MOI 10^−3, pretreatment
Experimental: (§1) FIGS. 2 to 7 show the observed amounts of copies of viral genome M/ml in the culture supernatant (M for the segment of viral genome encoding the M1 and M2 viral proteins), with various culture conditions and after various infection times.
(§2) For all the following examples, the experiments were carried out at a temperature of 37° C. The culture medium used is DMEM (Ref 41966, Gibco), supplemented with trypsin (1 ug/mL, Sigma) during the infections.
In order to gain a more precise idea, the quantification of the number of copies of viral genome M/ml of supernatant was then carried out, by extraction of the viral RNAs and quantification by real-time RT-qPCR (FIG. 2B). At 48 hpi, 6.66×10^6 copies M/ml were measured in the absence of Nutlin-3, compared with 2.44×10^8 copies M/ml in the presence of Nutlin-3, i.e. a gain of more than 36-fold in terms of viral production. The same calculation performed at 72 hpi indicates a gain of 88-fold in favor of the conditions where Nutlin-3 is used.
The A549 cells were infected with various amounts of virus (MOI 0.01, 0.1 and 1), in the presence or absence of Nutlin-3, and the amount of copies M/ml of supernatant was measured by RT-qPCR after a single viral cycle (10 hpi) or after several viral cycles (28 hpi). The cells were brought into contact with Nutlin-3, either 14 h before the infection (T=−14 h), or immediately at the time of infection (T=0 h) (FIG. 3). In any event, the Nutlin-3 is added in one go.
A similar experiment was carried out with an MOI of 10^−3, while modifying the time at which the pretreatment is carried out (14 h compared with 10 h before infection). At 48 hpi, Nutlin-3 makes it possible to obtain 1.5, 5.7 and 40 times more copies M/ml of supernatant than the control for respective concentrations of 0.1, 1 and 10 μM (FIG. 4).
This molecule was used at concentrations of 2 and 20 μM with an MOI of 10^−3.

[2] = system: H3N2 A/Moscow/10/99 virus; experiment: Infectious titer (TCID50/ml) in supernatant of infected A549 cells; format: cell-based, H3N2 A/Moscow/10/99 virus in human A549 cells; details: A549, from 24 hpi onward, presence vs absence of Nutlin-3 (FIG. 2A)
[3] = system: H3N2 A/Moscow/10/99 virus; experiment: Cytopathic effects induced by influenza virus on A549 cell layer (photon microscopy); format: cell-based, H3N2 A/Moscow/10/99 virus in human A549 cells; details: A549, 10 μM, MOI 2×10^−3, from 24 hpi onward, molecule added 14 h before infection and retained (FIG. 1)
Experimental: as §2
A549 cells (ATCC, American Type Culture Collection CCL185) are cells derived from a lung carcinoma. […] Several ex-vivo studies on lung tissues from infected patients have shown that epithelial cells of this type probably constitute the primary influenza virus infection site (Nicholls et al. Nat. Med. 2007 February; 13(2):147-9, van Riel et al. Science. 2006 Apr. 21; 312(5772):399). These cells are therefore considered to be relevant for studying influenza viruses and are, consequently, very widely used in the field of fundamental research on influenza viruses.
The observation and monitoring of the cytopathic effects induced by the virus over time generally allow a first evaluation of the degree of infection of the cell layer. The cytopathic effect induced by the virus is characterized in particular by fusion of the infected cells with one another, forming multinucleated cell structures (syncytia). By photon microscopy, observation of the amount and of the scale of these structures on the cell layer makes it possible to obtain an estimation of the degree of infection.

[4] = system: H3N2 A/Moscow/10/99 virus; experiment: Copies of viral genome M/ml in supernatant of infected MDCK cells by RT-qPCR; format: cell-based, H3N2 A/Moscow/10/99 virus in MDCK cells (dog); details: MOI 10^−3, 0.1, 1 and 10 μM
Experimental: as §1, §2
The MDCK line (ATCC No. CCL-34) is the most widely used line for the laboratory production of influenza virus. It is a cell line which is also registered and with which batches of vaccine have been produced by Novartis and Solvay.
At 24 hpi, up to 19 times more copies of genome M/ml are obtained in the presence of Nutlin-3 compared with the control.

Cc1ccc2ccc(C(Nc3ccccc3)c3ccccc3)c(O)c2n1 (centres unmarked) [NSC66811, 2-methyl-7-[phenyl(phenylamino)methyl]-8-quinolinol]
times more copies of genome M in the supernatant compared with the control ([1]; A549, 48 hpi, MOI 10^−3, 2 μM (FIG. 6)): approximately 6 times
times more copies of genome M in the supernatant compared with the control ([1]; A549, 72 hpi, MOI 10^−3, 20 μM (FIG. 6)): approximately 5 times

COc1ccc(C2=NC(c3ccc(Cl)cc3)C(c3ccc(Cl)cc3)N2C(=O)N2CCNC(=O)C2)c(OC(C)C)c1 (racemic) [Nutlin-3, (±)-4-[4,5-bis(4-chlorophenyl)-2-(2-isopropoxy-4-methoxy-phenyl)-4,5-dihydroimidazole-1-carbonyl]piperazin-2-one]
times more copies of genome in supernatant than control without Nutlin-3 ([1]; treatment started at T=0, MOI 0.1 (FIG. 3)): 11 times
times more copies of genome in supernatant than control without Nutlin-3 ([1]; treatment started at T=0, MOI 1 (FIG. 3)): 50 times
gain in viral production (copies M/ml) vs absence of Nutlin-3 ([1]; A549, 48 hpi (FIG. 2B)): more than 36 fold
times more copies M/ml of supernatant than the control ([1]; A549, 48 hpi, 0.1 μM (FIG. 4)): 1.5 times
times more copies M/ml of supernatant than the control ([1]; A549, 48 hpi, 1 μM (FIG. 4)): 5.7 times
times more copies M/ml of supernatant than the control ([1]; A549, 48 hpi, 10 μM (FIG. 4)): 40 times
copies of viral genome M/ml of supernatant ([1]; A549, 48 hpi, in the presence of Nutlin-3 (FIG. 2B)): 2.44×10^8 copies M/ml
gain in viral production (copies M/ml) vs absence of Nutlin-3 ([1]; A549, 72 hpi (FIG. 2B)): 88 fold
gain in infectious titer (TCID50/ml) in the supernatant [2]: gain of one log 10 difference
cytopathic effect compared with infected cells without Nutlin-3 [3]: more marked cytopathic effect
times more copies of genome M/ml compared with the control ([4]; 24 hpi, pretreatment 14 h before infection (FIG. 5)): up to 19 times
effect on viral titer (copies of genome M/ml) in cell supernatants ([4]; pretreatment 14 h before infection, after several consecutive viral cycles (FIG. 5)): greatly increases the viral titer
